Laboratory results from PubChem BioAssay (NCI).
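Assay format: 96-well plates, 48-hour exposure. At the TGI there is no net growth.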

Assays:
Assay in all cases: NCI anticancer screen, dose series, 48 h
[1] = test system: 786-0 renal
[2] = test system: A498 renal
[3] = test system: A549 NSCLC
[4] = test system: ACHN renal
[5] = test system: BT-549 breast
[6] = test system: CAKI-1 renal
[7] = test system: CCRF-CEM leukemia
[8] = test system: COLO 205 colon
[9] = test system: DU-145 prostate
[10] = test system: HCC-2998 colon
[11] = test system: HCT-116 colon
[12] = test system: HCT-15 colon
[13] = test system: HOP-62 NSCLC
[14] = test system: HOP-92 NSCLC
[15] = test system: HS 578T breast
[16] = test system: HT29 colon
[17] = test system: IGROV1 ovarian
[18] = test system: K-562 leukemia
[19] = test system: KM12 colon
[20] = test system: M14 melanoma
[21] = test system: MALME-3M melanoma
[22] = test system: MCF7 breast
[23] = test system: MDA-MB-231 breast
[24] = test system: MDA-MB-435
[25] = test system: MDA-N
[26] = test system: MOLT-4 leukemia
[27] = test system: NCI-H226 lung
[28] = test system: NCI-H23 lung
[29] = test system: NCI-H460 lung
[30] = test system: NCI-H522 lung
[31] = test system: NCI/ADR-RES ovarian
[32] = test system: OVCAR-3 ovarian
[33] = test system: OVCAR-4 ovarian
[34] = test system: OVCAR-5 ovarian
[35] = test system: OVCAR-8 ovarian
[36] = test system: PC-3 prostate
[37] = test system: RPMI-8226 leukemia
[38] = test system: RXF 393 renal
[39] = test system: SF-268 CNS
[40] = test system: SF-295 CNS
[41] = test system: SF-539 CNS
[42] = test system: SK-MEL-2 melanoma
[43] = test system: SK-MEL-28 melanoma
[44] = test system: SK-MEL-5 melanoma
[45] = test system: SK-OV-3 ovarian
[46] = test system: SN12C renal
[47] = test system: SNB-75 CNS
[48] = test system: SR leukemia
[49] = test system: SW-620 colon
[50] = test system: T-47D breast
[51] = test system: TK-10 renal
[52] = test system: U251 CNS
[53] = test system: UACC-257 melanoma
[54] = test system: UACC-62 melanoma
[55] = test system: UO-31 renal

Work on `CC(=O)N1N=C(c2ccc3ccccc3c2O)CC1c1ccc(Cl)cc1Cl` (stereo not given) yielded a TGI [1] of over 100 µM, a TGI [2] of over 100 µM and a TGI [3] of over 100 µM. For the same compound, the TGI [4] was over 100 µM, the TGI [5] was over 100 µM and the TGI [6] was over 100 µM. For the same compound, the TGI [7] was over 100 µM, the TGI [8] was over 100 µM and the TGI [9] was over 100 µM. It also gave a TGI [10] of over 100 µM, a TGI [11] of over 100 µM and a TGI [12] of over 100 µM. It also gave a TGI [13] of over 100 µM, a TGI [14] of over 100 µM and a TGI [15] of over 100 µM. For the same compound, the TGI [16] was over 100 µM, the TGI [17] was over 100 µM and the TGI [18] was over 100 µM. The TGI [19] was over 100 µM, the TGI [20] was over 100 µM and the TGI [21] was over 100 µM. It also gave a TGI [22] of over 100 µM, a TGI [23] of over 100 µM and a TGI [24] of over 100 µM. For the same compound, the TGI [25] was over 100 µM, the TGI [26] was over 100 µM and the TGI [27] was over 100 µM. The TGI [28] was over 100 µM, the TGI [29] was over 100 µM and the TGI [30] was over 100 µM. It also gave a TGI [31] of over 100 µM, a TGI [32] of over 100 µM and a TGI [33] of over 100 µM. The TGI [34] was over 100 µM, the TGI [35] was over 100 µM and the TGI [36] was over 100 µM. For the same compound, the TGI [37] was over 100 µM, the TGI [38] was over 100 µM and the TGI [39] was 93.1 µM. For the same compound, the TGI [40] was over 100 µM, the TGI [41] was 50.6 µM and the TGI [42] was over 100 µM. For the same compound, the TGI [43] was over 100 µM, the TGI [44] was over 100 µM and the TGI [45] was over 100 µM. It also gave a TGI [46] of over 100 µM, a TGI [47] of over 100 µM and a TGI [48] of over 100 µM. It also gave a TGI [49] of over 100 µM, a TGI [50] of over 100 µM and a TGI [51] of over 100 µM. For the same compound, the TGI [52] was over 100 µM, the TGI [53] was over 100 µM and the TGI [54] was over 100 µM. For the same compound, the TGI [55] was over 100 µM.
